One data set deals with MDA-MB-436 cells. Kind of data set: In vitro inhibition of MDA-MB-436 cell proliferation (CTG, 10 days). The format is cell-based. To be noted: Homo sapiens, MDA-MB-436, 240 h, 10 days incubation, read-out: Inhibitory activity against MDA-MB-436 cells (IC50). The procedure:
MDA-MB-436 cells were seeded in a 96-well low-adsorption plate at 1200 cells/well. After the cells adhered to the wall overnight, the serially diluted compound was added, and the cells were incubated for another 10 days. The ATP level of the cells was then determined by CTG to evaluate the cell growth. The growth inhibition percentages and IC50 of the compounds were calculated compared to the DMSO group.

Data set [1] can be described thus: In vitro liver microsomal stability, human. The format is in vitro ADME. To be noted: 1 μM compound, 500 μg/mL liver microsomes, NADPH.
Data set [2] can be described thus: In vitro liver microsomal stability, mouse. The format is in vitro ADME. To be noted: 1 μM compound, 500 μg/mL liver microsomes, NADPH.
Data set [3] can be described thus: In vivo pharmacokinetic experiment in CD-1 mice. Particulars: mouse, plasma, CD-1 female mice; for Vd: read-out: Vdss. On the procedure: CD-1 female mice aged 7 to 10 weeks were intravenously administered and orally administered at doses of 1 mg/kg and 10 mg/kg, respectively.
On the day of the experiment, animals in the intravenous group were given the corresponding compound by single injection via the tail vein at an administration volume of 2 mL/kg, and animals in the oral group were given the corresponding compound by single intragastric injection at an administration volume of 10 mL/kg. The animals were weighed before administration, and their administration volume was calculated according to their body weight. […] About […] of whole blood was collected through the orbital venous plexus at each time point and used to prepare plasma for concentration determination by high performance liquid chromatography-tandem mass spectrometry (LC-MS/MS). All animals were suffocated by CO2 after the PK samples were collected at the last time point. The plasma concentrations were processed using a non-compartmental model of Winnolin™ version 8.2 (Pharsight, mountain View, CA) pharmacokinetic software, and the pharmacokinetic parameters were calculated using a linear-log trapezoidal method.

Data set [4] has as its system MDA-MB-436 xenograft tumor. Kind of data set: In vivo efficacy in MDA-MB-436 xenograft tumor model. Set-up: species or system mouse. Particulars: for Tumor growth inhibition rate: after 28 days. On the procedure: MDA-MB-436 cells were subjected to adherent culture in an L-15 medium containing 10% fetal bovine serum and 1% AA at 37° C. with 5% CO2. The cells were digested with trypsin and routinely passaged twice a week. When cells were maintained in the exponential growth phase with viability greater than 95%, the cells were collected, counted, and inoculated. Each 6- to 8-week-old female BALB/c nude mouse was inoculated with 10×10^6 MDA-MB-436 cells+Matrigel in a volume of 0.2 mL in the right cervicodorsal region. […] The compounds were orally administered once a day, and the tumor volume and body weight of the mice were measured twice a week. After 28 days of administration, the mice were sacrificed. Data were processed using software such as Excel.

The mark [5] stands for this setting: 0 days (start of administration), BALB/c nude mice.
The mark [6] stands for this setting: 28 days, oral once a day, […] day 1-7 and 3 mg/kg day 8-28.
The mark [7] stands for this setting: oral once a day, […] day 1-7 and 3 mg/kg day 8-28.

Consider `CNC(=O)c1ccc(N2CCN(Cc3ccc4nc(C)c(=O)[nH]c4c3F)CC2)c(F)n1` [AZD9574, reference compound], for which, in the data set on MDA-MB-436 cells, the IC50 came to 9 nM. The molecule also returned a half-life at 1 μM in data set [1] of 1.72 h. The same molecule returned a half-life at 1 μM in data set [2] of 2.1 h. For the same molecule, in data set [3] (iv, Injection (1 mg/kg)), the AUC(0-t) worked out at 2550 ng·h/mL, the clearance was 6.42 mL/min/kg, the half-life was 4.54 h and the Vd is 2.03 L/kg. Moreover, in data set [3] (Oral administration (10 mg/kg)), the AUC(0-t) is 25400 ng·h/mL, the Cmax stood at 5140 ng/mL, the Tmax was found to be 0.5 h and the bioavailability is 99.5%. In data set [3] (Oral administration (10 mg/kg)), the half-life is 4.37 h. This molecule yielded a Mean tumor volume in data set [4] (setting [5]) of 212 mm^3. Also, in data set [4] (setting [6]), the Mean tumor volume came out at 126 mm^3. Also, the “Tumor growth inhibition rate” value in data set [4] (setting [7]) is 141%.
Regarding `Cc1nc2ccc(CN3CCN(c4ccc(C(=O)N[C@H]5C[C@H]5F)nc4F)CC3)cc2[nH]c1=O` [Compound 1], the IC50 with MDA-MB-436 cells amounted to 1.6 nM. Also, in data set [1], the half-life at 1 μM was found to be 8.23 h. For the same molecule, in data set [2], the half-life at 1 μM is 4.88 h. In addition, in data set [3] (iv, Injection (1 mg/kg)), the AUC(0-t) worked out at 3680 ng·h/mL, the clearance was 4.52 mL/min/kg, the half-life was 3.13 h and the Vd came to 1.13 L/kg. Also, in data set [3] (Oral administration (10 mg/kg)), the AUC(0-t) came to 60800 ng·h/mL, the Cmax was 14800 ng/mL, the Tmax was 0.17 h and the bioavailability worked out at 166%. Further, the half-life in data set [3] (Oral administration (10 mg/kg)) is 2.08 h. The molecule also showed a Mean tumor volume in data set [4] (setting [5]) of 212 mm^3. In addition, the Mean tumor volume in data set [4] (setting [6]) is listed as 87 mm^3. The “Tumor growth inhibition rate” value in data set [4] (setting [7]) is listed as 159%.
Turning to `Cc1nc2ccc(CN3CCN(c4ccc(C(=O)N[C@@H]5C[C@@H]5F)nc4F)CC3)cc2[nH]c1=O` [Compound 2], in the data set with MDA-MB-436 cells, the IC50 came out at 2.4 nM. The molecule also gave a half-life at 1 μM in data set [1] of 3.88 h. Besides, the half-life at 1 μM in data set [2] turned out to be 5.15 h. In data set [3] (iv, Injection (1 mg/kg)), the AUC(0-t) came out at 2120 ng·h/mL, the clearance was found to be 7.7 mL/min/kg, the half-life was 1.48 h and the Vd amounted to 0.76 L/kg. Also, in data set [3] (Oral administration (10 mg/kg)), the AUC(0-t) was 30900 ng·h/mL, the Cmax was determined as 10600 ng/mL, the Tmax is 0.5 h and the bioavailability was found to be 146%. The molecule further showed a half-life in data set [3] (Oral administration (10 mg/kg)) of 1.71 h.
`CCc1nc2ccc(CN3CCN(c4ccc(C(=O)N[C@@H]5C[C@@H]5F)nc4F)CC3)cc2[nH]c1=O` [Compound 6]: the IC50 in the data set on MDA-MB-436 cells stood at 2.6 nM.
On to `Cc1nc2ccc(CN3CCN(c4ccc(C(=O)NC5CC5)nc4F)CC3)cc2[nH]c1=O` [Compound 9], for which, in the data set with MDA-MB-436 cells, the IC50 is 3.7 nM. For the same molecule, in data set [1], the half-life at 1 μM is 3.8 h. Also, in data set [2], the half-life at 1 μM was found to be 9.43 h. In data set [3] (iv, Injection (1 mg/kg)), the AUC(0-t) was determined as 3590 ng·h/mL, the clearance was determined as 4.62 mL/min/kg, the half-life was 3.41 h and the Vd turned out to be 0.73 L/kg. Also, in data set [3] (Oral administration (10 mg/kg)), the AUC(0-t) worked out at 60800 ng·h/mL, the Cmax was determined as 16000 ng/mL, the Tmax was found to be 0.08 h and the bioavailability amounted to 192%. In addition, the half-life in data set [3] (Oral administration (10 mg/kg)) was 1.89 h. Besides, the Mean tumor volume in data set [4] (setting [5]) came to 212 mm^3. Moreover, the Mean tumor volume in data set [4] (setting [6]) was found to be 185 mm^3. The “Tumor growth inhibition rate” value in data set [4] (setting [7]) is 113%.
Regarding `Cc1nc2ccc(CN3CCN(c4ccc(C(=O)NC5CC5)nc4F)CC3)c(F)c2[nH]c1=O` [Compound 10], the IC50 with MDA-MB-436 cells amounted to 16 nM. Besides, the half-life at 1 μM in data set [1] turned out to be 1.67 h. The same molecule displayed a half-life at 1 μM in data set [2] of 14.4 h. Also, in data set [3] (iv, Injection (1 mg/kg)), the AUC(0-t) came out at 2170 ng·h/mL, the clearance stood at 7.5 mL/min/kg, the half-life was 5.07 h and the Vd is 2.38 L/kg. In data set [3] (Oral administration (10 mg/kg)), the AUC(0-t) turned out to be 20400 ng·h/mL, the peak level (Cmax) was 4530 ng/mL, the Tmax came to 0.17 h and the bioavailability is 93%. In data set [3] (Oral administration (10 mg/kg)), this molecule had a half-life of 3.8 h.
Take `CCc1nc2ccc(CN3CCN(c4ccc(C(=O)N[C@H]5C[C@H]5F)nc4F)CC3)cc2[nH]c1=O` [Compound 11]: in the data set with MDA-MB-436 cells, the IC50 came out at 1.7 nM.

A word on the IC50: it is the concentration needed to halve the response being measured. The term half-life denotes how long it takes for the measured level to halve. As a reminder, the AUC(0-t) is exposure summed from dosing to a finite time, without extrapolation to infinity. A low value points to less exposure. As usually defined, the clearance is the rate of elimination divided by the concentration. A high value points to a high capacity for elimination. In general, Cmax refers to the highest concentration seen after dosing. The term Tmax denotes the time from dosing to the highest level.

(Values after US20260265221A1, “PARP INHIBITOR, AND PREPARATION METHOD THEREFOR AND MEDICAL USE THEREOF” (WIGEN BIOMEDICINE TECHNOLOGY (SHANGHAI) CO., LTD., priority 2023, published 2026).)
